# Test results taken from PMC10046369, “Low-Affinity/High-Selectivity Dopamine Transport Inhibition Sufficient to Rescue Cognitive Functions in the Aging Rat” (Biomolecules, 2023).
# Key:
# Assay in all cases: cell-based
# Parameters in all cases: Eurofins Cerep functional GPCR screen, antagonist mode, inhibition of control agonist response
# Details in all cases: read-out: % Inhibition of Control Agonist Response, Mean
# B2 = target: T1, B2 (Homo sapiens, UniProt P30411)
# T1 construct: gene BDKRB2
# T1 sequence (P30411 whole entry): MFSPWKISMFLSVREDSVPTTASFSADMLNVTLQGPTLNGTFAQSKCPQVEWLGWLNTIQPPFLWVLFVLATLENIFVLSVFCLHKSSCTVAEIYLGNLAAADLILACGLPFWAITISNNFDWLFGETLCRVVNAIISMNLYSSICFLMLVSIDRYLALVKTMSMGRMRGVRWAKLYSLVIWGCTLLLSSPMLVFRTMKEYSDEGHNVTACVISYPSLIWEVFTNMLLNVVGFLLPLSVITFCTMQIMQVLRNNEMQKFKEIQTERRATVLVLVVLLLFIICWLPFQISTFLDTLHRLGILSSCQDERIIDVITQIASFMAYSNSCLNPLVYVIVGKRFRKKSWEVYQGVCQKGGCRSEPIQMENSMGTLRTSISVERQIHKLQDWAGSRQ
# D3 = target: T2, D3 (Homo sapiens, UniProt P35462)
# T2 construct: gene DRD3
# CT (Calcitonin) = target: T3, CT (Calcitonin) (Homo sapiens, UniProt P30988)
# T3 construct: gene CALCR
# TSH = target: T4, TSH (Homo sapiens, UniProt P16473)
# T4 construct: gene TSHR
# T4 sequence (P16473 whole entry): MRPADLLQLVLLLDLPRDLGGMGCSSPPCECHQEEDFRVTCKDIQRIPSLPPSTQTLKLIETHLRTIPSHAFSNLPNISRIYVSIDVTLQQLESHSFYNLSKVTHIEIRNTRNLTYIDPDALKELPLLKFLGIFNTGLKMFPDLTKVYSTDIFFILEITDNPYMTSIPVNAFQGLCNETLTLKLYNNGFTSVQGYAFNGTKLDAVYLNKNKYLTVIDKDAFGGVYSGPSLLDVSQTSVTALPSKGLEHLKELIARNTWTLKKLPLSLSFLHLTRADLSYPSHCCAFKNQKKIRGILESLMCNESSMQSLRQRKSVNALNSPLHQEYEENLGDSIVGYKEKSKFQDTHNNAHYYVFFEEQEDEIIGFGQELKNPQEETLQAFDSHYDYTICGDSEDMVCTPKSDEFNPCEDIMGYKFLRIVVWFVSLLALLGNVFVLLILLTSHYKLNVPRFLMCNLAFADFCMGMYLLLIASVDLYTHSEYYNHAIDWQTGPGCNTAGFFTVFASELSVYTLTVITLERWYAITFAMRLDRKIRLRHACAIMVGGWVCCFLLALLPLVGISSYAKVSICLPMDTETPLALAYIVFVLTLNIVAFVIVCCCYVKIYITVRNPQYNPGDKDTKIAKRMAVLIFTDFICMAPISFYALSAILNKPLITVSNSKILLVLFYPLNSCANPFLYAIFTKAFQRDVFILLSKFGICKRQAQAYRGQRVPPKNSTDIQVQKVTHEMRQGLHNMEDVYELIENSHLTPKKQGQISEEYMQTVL
# A3 = target: T5, A3 (Homo sapiens, UniProt P0DMS8)
# T5 construct: gene ADORA3
# CysLT2 (LTC4) = target: T6, CysLT2 (LTC4) (Homo sapiens, UniProt Q9NS75)
# T6 construct: gene CYSLTR2
# T6 sequence (Q9NS75 whole entry): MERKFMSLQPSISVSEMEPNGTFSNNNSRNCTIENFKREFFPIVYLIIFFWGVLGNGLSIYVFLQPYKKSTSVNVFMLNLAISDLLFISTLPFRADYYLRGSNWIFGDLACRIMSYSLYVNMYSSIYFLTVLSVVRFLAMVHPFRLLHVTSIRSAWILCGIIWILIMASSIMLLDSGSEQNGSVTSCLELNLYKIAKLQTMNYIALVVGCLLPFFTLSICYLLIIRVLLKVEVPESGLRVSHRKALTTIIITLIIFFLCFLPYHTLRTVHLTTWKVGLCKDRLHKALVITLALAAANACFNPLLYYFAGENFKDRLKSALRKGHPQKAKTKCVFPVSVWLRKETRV
# CXCR5 = CXCR5 (Homo sapiens, UniProt P32302)
# Sequence of CXCR5 (P32302 whole entry): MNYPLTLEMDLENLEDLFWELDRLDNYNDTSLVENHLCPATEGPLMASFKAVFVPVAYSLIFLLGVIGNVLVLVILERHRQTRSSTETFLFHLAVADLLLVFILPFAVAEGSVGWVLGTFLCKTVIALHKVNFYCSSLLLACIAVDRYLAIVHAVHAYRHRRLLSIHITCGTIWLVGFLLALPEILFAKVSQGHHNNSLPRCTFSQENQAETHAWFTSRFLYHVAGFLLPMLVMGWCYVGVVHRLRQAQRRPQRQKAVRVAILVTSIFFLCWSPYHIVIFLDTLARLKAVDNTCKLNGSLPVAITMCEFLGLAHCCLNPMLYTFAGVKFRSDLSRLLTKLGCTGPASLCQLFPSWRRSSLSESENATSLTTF
# β3 = target: T7, β3 (Homo sapiens, UniProt P13945)
# T7 construct: gene ADRB3
# CB2 = target: T8, CB2 (Homo sapiens, UniProt P34972)
# T8 construct: gene CNR2
# T8 sequence (P34972 whole entry): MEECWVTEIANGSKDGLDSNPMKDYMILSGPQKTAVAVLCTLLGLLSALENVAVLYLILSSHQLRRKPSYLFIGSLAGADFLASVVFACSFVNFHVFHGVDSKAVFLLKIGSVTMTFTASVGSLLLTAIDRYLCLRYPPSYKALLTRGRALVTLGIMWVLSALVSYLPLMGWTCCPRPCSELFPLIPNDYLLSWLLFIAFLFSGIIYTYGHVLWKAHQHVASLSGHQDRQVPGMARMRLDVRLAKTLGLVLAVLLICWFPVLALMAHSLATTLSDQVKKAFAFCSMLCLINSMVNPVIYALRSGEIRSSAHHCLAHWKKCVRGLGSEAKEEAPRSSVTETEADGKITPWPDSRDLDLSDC
# ChemR23 = target: T9, ChemR23 (Homo sapiens, UniProt Q99788)
# T9 construct: gene CMKLR1
# T9 sequence (Q99788 whole entry): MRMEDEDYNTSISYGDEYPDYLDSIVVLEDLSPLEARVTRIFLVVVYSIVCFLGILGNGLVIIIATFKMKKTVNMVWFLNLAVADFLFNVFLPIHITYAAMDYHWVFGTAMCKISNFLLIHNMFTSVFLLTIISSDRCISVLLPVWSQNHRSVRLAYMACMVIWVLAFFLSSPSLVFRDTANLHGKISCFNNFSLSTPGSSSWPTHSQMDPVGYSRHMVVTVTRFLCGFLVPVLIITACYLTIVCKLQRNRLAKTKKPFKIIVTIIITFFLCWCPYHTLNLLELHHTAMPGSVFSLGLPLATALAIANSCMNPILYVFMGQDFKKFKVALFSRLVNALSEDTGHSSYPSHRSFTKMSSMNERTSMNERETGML
# CCR4 = CCR4 (Homo sapiens, UniProt P51679)
# Sequence of CCR4 (P51679 whole entry): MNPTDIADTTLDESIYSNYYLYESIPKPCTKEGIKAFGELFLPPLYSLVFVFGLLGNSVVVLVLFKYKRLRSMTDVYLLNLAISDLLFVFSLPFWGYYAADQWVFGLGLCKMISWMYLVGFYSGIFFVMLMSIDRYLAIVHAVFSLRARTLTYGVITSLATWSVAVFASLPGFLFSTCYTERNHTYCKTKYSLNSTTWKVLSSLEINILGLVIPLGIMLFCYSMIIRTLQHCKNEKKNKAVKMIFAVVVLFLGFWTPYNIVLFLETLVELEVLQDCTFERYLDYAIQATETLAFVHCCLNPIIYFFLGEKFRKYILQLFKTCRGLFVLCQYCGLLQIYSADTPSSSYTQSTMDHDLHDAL
# GnRH = target: T10, GnRH (Homo sapiens, UniProt P30968)
# T10 construct: gene GNRHR
# KiSS1 / GPR54 = target: T11, KiSS1 / GPR54 (Homo sapiens, UniProt Q969F8)
# T11 construct: gene KISS1R
# α2B = target: T12, α2B (Homo sapiens, UniProt P18089)
# T12 construct: gene ADRA2B
# T12 sequence (P18089 whole entry): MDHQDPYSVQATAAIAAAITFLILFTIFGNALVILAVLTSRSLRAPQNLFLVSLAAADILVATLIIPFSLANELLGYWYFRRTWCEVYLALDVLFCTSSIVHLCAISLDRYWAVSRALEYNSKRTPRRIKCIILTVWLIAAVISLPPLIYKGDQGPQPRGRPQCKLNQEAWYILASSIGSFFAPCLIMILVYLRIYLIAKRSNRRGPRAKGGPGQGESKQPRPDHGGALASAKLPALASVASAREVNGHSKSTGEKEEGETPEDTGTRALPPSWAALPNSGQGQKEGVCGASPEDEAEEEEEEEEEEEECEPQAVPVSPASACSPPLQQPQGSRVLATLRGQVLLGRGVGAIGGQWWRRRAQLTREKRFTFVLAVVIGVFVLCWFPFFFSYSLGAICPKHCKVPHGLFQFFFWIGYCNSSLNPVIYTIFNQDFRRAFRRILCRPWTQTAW
# α1A = target: T13, α1A (Homo sapiens, UniProt P35348)
# T13 construct: gene ADRA1A
# GHRH = target: T14, GHRH (Homo sapiens, UniProt Q02643)
# T14 construct: gene GHRHR
# CXCR6 = CXCR6 (Homo sapiens, UniProt O00574)
# CXCR1 = CXCR1 (Homo sapiens, UniProt P25024)
# Sequence of CXCR1 (P25024 whole entry): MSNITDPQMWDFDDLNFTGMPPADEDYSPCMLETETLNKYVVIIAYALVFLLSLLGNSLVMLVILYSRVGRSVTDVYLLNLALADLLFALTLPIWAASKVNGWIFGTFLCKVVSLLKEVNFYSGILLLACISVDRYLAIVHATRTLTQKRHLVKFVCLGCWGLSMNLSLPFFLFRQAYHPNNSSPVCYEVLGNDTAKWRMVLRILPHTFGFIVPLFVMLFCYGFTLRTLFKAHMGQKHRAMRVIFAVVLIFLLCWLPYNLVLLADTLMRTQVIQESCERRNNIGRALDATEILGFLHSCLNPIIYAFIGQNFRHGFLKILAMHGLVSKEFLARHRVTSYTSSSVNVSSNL
# D4.4 = target: T15, D4.4 (Homo sapiens, UniProt P21917)
# T15 construct: gene DRD4; D4.4
# T15 sequence (P21917 whole entry): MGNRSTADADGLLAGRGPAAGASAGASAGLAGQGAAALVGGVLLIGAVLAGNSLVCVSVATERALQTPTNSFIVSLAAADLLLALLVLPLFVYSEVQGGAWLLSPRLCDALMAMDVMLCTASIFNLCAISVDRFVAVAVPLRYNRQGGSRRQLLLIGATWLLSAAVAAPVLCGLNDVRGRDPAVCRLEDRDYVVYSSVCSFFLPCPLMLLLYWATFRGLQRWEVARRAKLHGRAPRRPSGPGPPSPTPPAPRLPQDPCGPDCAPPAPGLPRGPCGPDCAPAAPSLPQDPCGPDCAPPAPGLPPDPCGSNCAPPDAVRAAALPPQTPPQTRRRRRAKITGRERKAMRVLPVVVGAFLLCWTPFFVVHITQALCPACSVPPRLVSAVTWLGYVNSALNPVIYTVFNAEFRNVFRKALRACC
# ETA = target: T16, ETA (Homo sapiens, UniProt P25101)
# T16 construct: gene EDNRA
# BB3 = target: T17, BB3 (Homo sapiens, UniProt P32247)
# T17 construct: gene BRS3
# CXCR2 = CXCR2 (Homo sapiens, UniProt P25025)
# Sequence of CXCR2 (P25025 whole entry): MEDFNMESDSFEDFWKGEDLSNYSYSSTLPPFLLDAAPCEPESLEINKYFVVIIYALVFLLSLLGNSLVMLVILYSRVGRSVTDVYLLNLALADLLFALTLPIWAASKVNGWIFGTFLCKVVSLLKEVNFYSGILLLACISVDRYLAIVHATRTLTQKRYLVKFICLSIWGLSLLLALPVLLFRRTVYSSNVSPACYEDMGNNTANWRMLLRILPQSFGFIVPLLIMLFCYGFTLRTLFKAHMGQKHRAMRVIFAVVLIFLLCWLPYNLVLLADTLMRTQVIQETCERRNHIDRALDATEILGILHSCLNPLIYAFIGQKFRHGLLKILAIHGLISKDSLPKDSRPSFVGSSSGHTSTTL
# CaS = target: T18, CaS (Homo sapiens, UniProt P41180)
# T18 construct: gene CASR
# B1 = target: T19, B1 (Homo sapiens, UniProt P46663)
# T19 construct: gene BDKRB1
# T19 sequence (P46663 whole entry): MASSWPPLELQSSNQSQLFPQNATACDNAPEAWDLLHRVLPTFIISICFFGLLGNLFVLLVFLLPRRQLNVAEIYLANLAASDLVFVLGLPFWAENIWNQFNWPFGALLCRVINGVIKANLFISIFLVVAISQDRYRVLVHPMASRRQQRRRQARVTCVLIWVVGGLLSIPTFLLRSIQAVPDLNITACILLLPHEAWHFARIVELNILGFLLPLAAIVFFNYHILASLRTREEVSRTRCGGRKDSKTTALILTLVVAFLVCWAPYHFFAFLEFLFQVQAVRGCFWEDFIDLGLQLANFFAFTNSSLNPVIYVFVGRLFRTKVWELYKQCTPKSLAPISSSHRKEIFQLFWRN
# H1 = target: T20, H1 (Homo sapiens, UniProt P35367)
# T20 construct: gene HRH1
# CCR1 = CCR1 (Homo sapiens, UniProt P32246)
smiles,measurement,setting,value
"[O-][S@@+](Cc1cncs1)C(c1ccccc1)c1ccccc1 [S-CE-123, (S)-5-((Benzhydrylsulfinyl)Methyl)Thiazole]",inhibition at 2.8 µM,B2,-32.1%
same,inhibition at 2.8 µM,D3,-1.9%
same,inhibition at 2.8 µM,CT (Calcitonin),-21.7%
same,inhibition at 2.8 µM,TSH,-6.1%
same,inhibition at 2.8 µM,A3,-1.8%
same,inhibition at 2.8 µM,CysLT2 (LTC4),4.5%
same,inhibition at 2.8 µM,CXCR5,-1.9%
same,inhibition at 2.8 µM,β3,15.5%
same,inhibition at 2.8 µM,CB2,8.6%
same,inhibition at 2.8 µM,ChemR23,-1.6%
same,inhibition at 2.8 µM,CCR4,-5.8%
same,inhibition at 2.8 µM,GnRH,3.9%
same,inhibition at 2.8 µM,KiSS1 / GPR54,-2.8%
same,inhibition at 2.8 µM,α2B,-8.3%
same,inhibition at 2.8 µM,α1A,3.1%
same,inhibition at 2.8 µM,GHRH,11.7%
same,inhibition at 2.8 µM,CXCR6,-7.6%
same,inhibition at 2.8 µM,CXCR1,-13%
same,inhibition at 2.8 µM,D4.4,-7.9%
same,inhibition at 2.8 µM,ETA,-0.5%
same,inhibition at 2.8 µM,BB3,6.2%
same,inhibition at 2.8 µM,CXCR2,3.8%
same,inhibition at 2.8 µM,CaS,-6.4%
same,inhibition at 2.8 µM,B1,-10.4%
same,inhibition at 2.8 µM,H1,-1.9%
same,inhibition at 2.8 µM,CCR1,-1.5%
